This assay has as its target T1, human Nav1.7 (hNav1.7) (Homo sapiens, UniProt Q15858).
T1 construct: expressed in transfected cells
Description: hNav1.7 whole-cell patch-clamp electrophysiology (automated PatchXpress 7000A or manual) in stably expressing 293 cells. It counts as cell-based. The gist of the method:
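Stably transfected 293 cells lacking endogenous sodium channels; peak current evoked by depolarizing pulses during increasing compound concentrations, automated at ~20% fractional inactivation, or manually at −140 mV (resting) and ~20% inactivation. Block taken at steady state, corrected for rundown; IC50 by Hill fit.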
(Patch clamp records ionic current or voltage across a cell membrane.)

Setting [1] is: human Nav1.7 stably expressed in 293 cells, whole-cell patch clamp, average IC50 from Hill fit.

T1 sequence (Q15858 whole entry): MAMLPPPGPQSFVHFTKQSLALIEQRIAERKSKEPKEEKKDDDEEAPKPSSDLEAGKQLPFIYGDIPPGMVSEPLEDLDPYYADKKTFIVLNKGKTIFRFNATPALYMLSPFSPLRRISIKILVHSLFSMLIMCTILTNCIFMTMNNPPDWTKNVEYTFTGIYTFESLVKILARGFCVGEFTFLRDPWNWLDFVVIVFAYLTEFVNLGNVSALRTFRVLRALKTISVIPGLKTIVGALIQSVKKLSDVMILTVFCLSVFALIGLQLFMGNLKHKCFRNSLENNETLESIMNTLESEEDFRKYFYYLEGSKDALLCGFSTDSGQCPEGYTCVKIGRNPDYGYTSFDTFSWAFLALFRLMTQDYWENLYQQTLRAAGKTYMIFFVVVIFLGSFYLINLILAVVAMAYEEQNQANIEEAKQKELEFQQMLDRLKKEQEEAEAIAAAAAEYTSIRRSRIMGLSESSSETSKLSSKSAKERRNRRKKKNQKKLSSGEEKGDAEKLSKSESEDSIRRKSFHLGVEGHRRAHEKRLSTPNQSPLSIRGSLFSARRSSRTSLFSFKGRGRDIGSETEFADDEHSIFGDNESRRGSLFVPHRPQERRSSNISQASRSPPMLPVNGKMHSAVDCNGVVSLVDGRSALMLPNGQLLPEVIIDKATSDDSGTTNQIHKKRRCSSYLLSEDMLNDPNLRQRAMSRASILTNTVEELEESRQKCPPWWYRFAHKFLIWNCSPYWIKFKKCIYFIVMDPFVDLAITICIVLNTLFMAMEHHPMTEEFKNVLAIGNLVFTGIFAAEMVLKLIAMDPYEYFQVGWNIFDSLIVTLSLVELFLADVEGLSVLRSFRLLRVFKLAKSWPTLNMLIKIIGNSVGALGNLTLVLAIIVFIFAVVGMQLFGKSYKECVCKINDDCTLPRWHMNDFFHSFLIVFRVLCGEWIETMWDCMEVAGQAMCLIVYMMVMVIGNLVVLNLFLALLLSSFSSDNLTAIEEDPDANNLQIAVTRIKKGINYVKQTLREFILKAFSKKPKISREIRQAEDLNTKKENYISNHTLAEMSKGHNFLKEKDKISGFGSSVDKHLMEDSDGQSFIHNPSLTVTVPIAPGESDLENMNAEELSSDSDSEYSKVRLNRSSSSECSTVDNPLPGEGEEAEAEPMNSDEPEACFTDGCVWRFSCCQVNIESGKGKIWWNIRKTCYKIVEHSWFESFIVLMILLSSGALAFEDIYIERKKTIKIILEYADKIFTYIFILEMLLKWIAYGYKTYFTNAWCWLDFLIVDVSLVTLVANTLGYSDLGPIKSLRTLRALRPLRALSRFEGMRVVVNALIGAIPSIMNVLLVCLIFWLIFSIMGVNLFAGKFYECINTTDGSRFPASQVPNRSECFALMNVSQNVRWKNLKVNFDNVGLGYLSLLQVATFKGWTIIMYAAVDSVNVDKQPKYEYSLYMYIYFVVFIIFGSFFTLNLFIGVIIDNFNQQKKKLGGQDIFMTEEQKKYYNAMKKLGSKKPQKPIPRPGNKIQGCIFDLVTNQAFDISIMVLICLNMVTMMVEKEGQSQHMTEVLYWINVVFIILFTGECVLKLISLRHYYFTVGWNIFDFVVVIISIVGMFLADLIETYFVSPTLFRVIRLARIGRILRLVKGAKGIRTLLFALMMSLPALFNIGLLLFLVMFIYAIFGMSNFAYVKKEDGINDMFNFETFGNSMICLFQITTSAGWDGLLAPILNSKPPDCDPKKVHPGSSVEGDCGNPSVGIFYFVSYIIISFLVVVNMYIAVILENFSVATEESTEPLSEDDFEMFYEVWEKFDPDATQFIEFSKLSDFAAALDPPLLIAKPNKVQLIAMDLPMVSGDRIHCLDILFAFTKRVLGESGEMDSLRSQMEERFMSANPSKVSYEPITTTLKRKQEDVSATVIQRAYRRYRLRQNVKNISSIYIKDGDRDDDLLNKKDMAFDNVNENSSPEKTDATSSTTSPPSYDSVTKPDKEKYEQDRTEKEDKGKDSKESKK

`NC(=O)c1cc(Nc2ncnc(N3CC(Oc4ccc(F)cc4)C3)n2)ccc1F` [Example 291]: the IC50 (average IC50) is over 30 µM. `CNC(=O)c1cccc(Nc2ncnc(N3CCc4cc(C(O)C(F)(F)F)ccc4C3)n2)c1` (centres unmarked) [Example 292]: for the setting “average IC50”, the IC50 was over 30 µM. Still for that read-out and setting: as for `Cc1c(Nc2ncnc(N3CCc4cc(Br)ccc4C3)n2)cccc1C(N)=O` [Example 293], the figure is over 30 µM; as for `CNC(=O)c1cccc(Nc2ncnc(N3CCC(CCCc4ccccc4)CC3)n2)c1` [Example 294], over 30 µM; as for `Cc1ccc(N2CCN(c3ncnc(Nc4ccc(F)c(C(N)=O)c4)n3)CC2)cc1C` [Example 295], over 30 µM. Regarding `CNC(=O)c1cccc(Nc2ncnc(N3CCC(OCC(C)C)CC3)n2)c1` [Example 296], the IC50 (average IC50) was over 30 µM.

With `CNC(=O)c1cccc(Nc2ncnc(N3CC(Oc4ccccc4C#N)C3)n2)c1` [Example 297], where the note is “average IC50”, the IC50 is over 30 µM. Where the note is “average IC50”, `CNC(=O)c1cccc(Nc2ncnc(N3CCc4ccc(C(F)(F)F)cc4C3)n2)c1` [Example 298] came in with an IC50 of over 30 µM. On the same count and under the same terms, under `CNC(=O)c1cccc(Nc2ncnc(N3CCc4cc(C#N)ccc4C3)n2)c1` [Example 299] stands over 30 µM. In the case of `CNC(=O)c1cccc(Nc2nccc(N3CC(Oc4ccc(Cl)c(Cl)c4)C3)n2)c1` [Example A, 3-(4-(3-(3,4-dichlorophenoxy)azetidin-1-yl)pyrimidin-2-ylamino)-N-methylbenzamide], under setting [1], 0.78 µM corresponded to half-maximal inhibition (IC50). Under setting [1], `CNC(=O)c1cccc(Nc2ccnc(N3CC(Oc4ccc(Cl)cc4F)C3)c2)c1` [Example AA, 3-((2-(3-(4-chloro-2-fluorophenoxy)-1-azetidinyl)-4-pyridinyl)amino)-N-methylbenzamide] showed an IC50 of 7.15 µM.

As for `CNC(=O)c1cccc(Nc2nccc(N3CC(Oc4ccc(Cl)cc4Cl)C3)n2)c1` [Example AAA, 3-(4-(3-(2,4-dichlorophenoxy)azetidin-1-yl)pyrimidin-2-ylamino)-N-methylbenzamide], under setting [1], the IC50 was 0.52 µM. Under setting [1], `CNC(=O)c1cccc(Nc2ncnc(N3CC(Oc4ccc(Cl)cc4F)C3)c2F)c1` [Example AB, 3-((6-(3-(4-chloro-2-fluorophenoxy)-1-azetidinyl)-5-fluoro-4-pyrimidinyl)-amino)-N-methylbenzamide] displayed an IC50 of over 30 µM.

As for `CNC(=O)c1cccc(Nc2ccnc(NCCCOc3ccc(OC(F)(F)F)cc3)n2)c1` [Example AC, N-methyl-3-((2-((3-(4-(trifluoromethoxy)phenoxy)propyl)amino)-4-pyrimidinyl)amino)benzamide], the IC50 under setting [1] is 1.17 µM. Same read-out and setting: under `CNC(=O)c1cccc(Nc2ncnc(N3CCC(OCc4ccc(OC(F)(F)F)cc4)CC3)n2)c1C` [Example AD, N,2-dimethyl-3-((4-(4-((4-(trifluoromethoxy)benzyl)oxy)-1-piperidinyl)-1,3,5-triazin-2-yl)amino)benzamide] stands 28.6 µM; under `CNC(=O)c1cccc(Oc2ncnc(N3CC(Oc4ccc(Cl)cc4F)C3)n2)c1` [Example AE, 3-((4-(3-(4-chloro-2-fluorophenoxy)-1-azetidinyl)-1,3,5-triazin-2-yl)oxy)-N-methylbenzamide], over 30 µM; under `CNC(=O)c1cccc(Nc2cccc(N3CC(Oc4ccc(F)cc4)C3)c2)c1` [Example AF, 3-((3-(3-(4-fluorophenoxy)-1-azetidinyl)phenyl)amino)-N-methylbenzamide], 9.53 µM. Turning to `CNC(=O)c1cccc(Nc2cccc(N3CC(Oc4ccc(Cl)cc4F)C3)c2)c1` [Example AG, 3-((3-(3-(4-chloro-2-fluorophenoxy)-1-azetidinyl)phenyl)amino)-N-methylbenzamide], the IC50 under setting [1] is over 30 µM.

In the case of `CNC(=O)c1cccc(Nc2nc(N3CC(Oc4ccc(F)cc4)C3)ncc2F)c1` [Example AH, 3-((5-fluoro-2-(3-(4-fluorophenoxy)-1-azetidinyl)-4-pyrimidinyl)amino)-N-methylbenzamide], inhibition under setting [1] was half-maximal at 0.34 µM (IC50).

As to `CNC(=O)c1cccc(Nc2nccc(N3CCc4cc(OCC(F)(F)F)ccc4C3)n2)c1` [Example AI, N-methyl-3-((4-(6-(2,2,2-trifluoroethoxy)-3,4-dihydro-2(1H)-isoquinolinyl)-2-pyrimidinyl)amino)benzamide], under setting [1], 1.44 µM corresponded to half-maximal inhibition (IC50). Still for that read-out and setting: as for `CNC(=O)c1cccc(Nc2ccnc(N3CC(Oc4ccc(Cl)cc4F)C3)n2)c1` [Example AJ, 3-((2-(3-(4-chloro-2-fluorophenoxy)-1-azetidinyl)-4-pyrimidinyl)amino)-N-methylbenzamide], the figure is 2.26 µM; as for `CNC(=O)c1cccc(Nc2nc(N3CC(Oc4ccc(Cl)cc4F)C3)ncc2F)c1` [Example AK, 3-((2-(3-(4-chloro-2-fluorophenoxy)-1-azetidinyl)-5-fluoro-4-pyrimidinyl)amino)-N-methylbenzamide], 0.43 µM.

`CNC(=O)c1cccc(Nc2nccc(N3CC(Oc4ccc(C)cc4)C3)n2)c1` [Example B, N-methyl-3-((4-(3-(4-methylphenoxy)-1-azetidinyl)-2-pyrimidinyl)amino)benzamide] showed an IC50 under setting [1] of 2 µM. Under setting [1], `CNC(=O)c1cccc(Nc2nccc(N3CC(Oc4ccc(C(F)(F)F)cc4)C3)n2)c1` [Example C, N-methyl-3-((4-(3-(4-(trifluoromethyl)phenoxy)-1-azetidinyl)-2-pyrimidinyl)amino)benzamide] registered a half-inhibitory concentration (IC50) of 1.55 µM. Still for that read-out and setting: as for `CNC(=O)c1cccc(Nc2nccc(N3CC(Oc4ccc(OC)cc4)C3)n2)c1` [Example D, 3-((4-(3-(4-methoxyphenoxy)-1-azetidinyl)-2-pyrimidinyl)amino)-N-methylbenzamide], the figure is 0.43 µM; as for `CNC(=O)c1cccc(Nc2nccc(N3CC(Oc4ccc(F)c(F)c4)C3)n2)c1` [Example E, 3-((4-(3-(3,4-difluorophenoxy)-1-azetidinyl)-2-pyrimidinyl)amino)-N-methylbenzamide], 1.6 µM; as for `CNC(=O)c1cccc(Nc2nccc(N3CC(Oc4ccc(F)c(Cl)c4)C3)n2)c1` [Example F, 3-((4-(3-(3-chloro-4-fluorophenoxy)-1-azetidinyl)-2-pyrimidinyl)amino)-N-methylbenzamide], 2.83 µM.

On to `CNC(=O)c1cccc(Nc2nccc(N3CC(Oc4ccc(F)c(C)c4)C3)n2)c1` [Example G, 3-((4-(3-(4-fluoro-3-methylphenoxy)-1-azetidinyl)-2-pyrimidinyl)amino)-N-methylbenzamide], for which the IC50 under setting [1] turned out to be 1.41 µM.

`CNC(=O)c1cccc(Nc2nccc(N3CC(Oc4ccc(F)cc4F)C3)n2)c1` [Example H, 3-((4-(3-(2,4-difluorophenoxy)-1-azetidinyl)-2-pyrimidinyl)amino)-N-methylbenzamide]: under setting [1], the midpoint of inhibition, the IC50, lay at 2.16 µM. Under setting [1], `CNC(=O)c1cccc(Nc2nccc(N3CC(Oc4ccc(F)cc4Cl)C3)n2)c1` [Example I, 3-((4-(3-(2-chloro-4-fluorophenoxy)-1-azetidinyl)-2-pyrimidinyl)amino)-N-methylbenzamide] had an IC50 of 0.63 µM. Same read-out and setting: as for `CNC(=O)c1cccc(Nc2nccc(N3CC(Oc4ccc(F)cc4C)C3)n2)c1` [Example J, 3-((4-(3-(4-fluoro-2-methylphenoxy)-1-azetidinyl)-2-pyrimidinyl)amino)-N-methylbenzamide], the figure is 0.08 µM. As to `CNC(=O)c1cccc(Nc2nccc(N3CC(Oc4ccc(Cl)c(F)c4)C3)n2)c1` [Example K, 3-((4-(3-(4-chloro-3-fluorophenoxy)-1-azetidinyl)-2-pyrimidinyl)amino)-N-methylbenzamide], 0.74 µM corresponded to half-maximal inhibition under setting [1] (IC50). In the case of `CNC(=O)c1cccc(Nc2nccc(N3CC(Oc4ccc(Cl)c(C)c4)C3)n2)c1` [Example L, 3-((4-(3-(4-chloro-3-methylphenoxy)-1-azetidinyl)-2-pyrimidinyl)amino)-N-methylbenzamide], under setting [1], the IC50 was 0.31 µM.

Regarding `CNC(=O)c1cccc(Nc2nccc(N3CC(Oc4ccc(Cl)cc4F)C3)n2)c1` [Example M, 3-((4-(3-(4-chloro-2-fluorophenoxy)-1-azetidinyl)-2-pyrimidinyl)amino)-N-methylbenzamide], the IC50 under setting [1] was 2.3 µM. Turning to `CNC(=O)c1cccc(Nc2nccc(N3CC(Oc4ccc(Cl)cc4C)C3)n2)c1` [Example N, 3-((4-(3-(4-chloro-2-methylphenoxy)-1-azetidinyl)-2-pyrimidinyl)amino)-N-methylbenzamide], half-maximal inhibition under setting [1] (IC50) required 0.26 µM. Turning to `CNC(=O)c1cccc(Nc2nccc(N3CC(COc4ccc(Cl)cc4)C3)n2)c1` [Example O, 3-((4-(3-((4-chlorophenoxy)methyl)-1-azetidinyl)-2-pyrimidinyl)amino)-N-methylbenzamide], under setting [1], it took 2.55 µM to reach half-maximal inhibition (IC50). Same read-out and setting: under `CNC(=O)c1cccc(Nc2ncnc(N3CC(Oc4ccc(Cl)cc4F)C3)n2)c1` [Example Q, 3-(4-(3-(4-chloro-2-fluorophenoxy)azetidin-1-yl)-1,3,5-triazin-2-ylamino)-N-methylbenzamide] stands 2.99 µM. Same read-out and setting: as for `CCNC(=O)c1cccc(Nc2ncnc(N3CC(Oc4ccc(Cl)cc4F)C3)n2)c1` [Example R, 3-(4-(3-(4-chloro-2-fluorophenoxy)azetidin-1-yl)-1,3,5-triazin-2-ylamino)-N-ethylbenzamide], the figure is 1.14 µM. The same measure, in the same setting: under `CNC(=O)c1cc(F)cc(Nc2ncnc(N3CC(Oc4ccc(Cl)cc4F)C3)n2)c1` [Example S, 3-(4-(3-(4-chloro-2-fluorophenoxy)azetidin-1-yl)-1,3,5-triazin-2-ylamino)-5-fluoro-N-methylbenzamide] stands over 30 µM; under `CNC(=O)c1cccc(Nc2cc(N3CC(Oc4ccc(Cl)cc4F)C3)ccn2)c1` [Example T, 3-(4-(3-(4-chloro-2-fluorophenoxy)azetidin-1-yl)pyridin-2-ylamino)-N-methylbenzamide], 4.5 µM; under `CNC(=O)c1cccc(Nc2nc(C)nc(N3CC(Oc4ccc(Cl)cc4F)C3)n2)c1` [Example U, 3-(4-(3-(4-chloro-2-fluorophenoxy)azetidin-1-yl)-6-methyl-1,3,5-triazin-2-ylamino)-N-methylbenzamide], over 30 µM.

What is called IC50 is the concentration that inhibits the measured activity by half.

Values taken from patent publication US9334269B2, “Carboxamides as inhibitors of voltage-gated sodium channels” (AMGEN INC., priority 2010, dated 2016).
